The results in this text go back to publication PMC7887755, “Structure–Activity Relationships of Pyrazolo[1,5-a]pyrimidin-7(4H)-ones as Antitubercular Agents” (ACS Infectious Diseases, 2021).

Data set [1] deals with Mtb H37Rv. As to the kind of experiment: microbe, parasite or virus in culture. The settings on record: for MIC: Mycobacterium tuberculosis, H37RV. It counts as cell-based, Mycobacterium tuberculosis.
Data set [2] has as its system Mtb strain H37Rv. The data set can be described thus: MIC against Mtb H37Rv under various media/carbon sources. The format is cell-based. The settings on record: Mycobacterium tuberculosis.
For data set [3], the system named is J774 cells. As to the kind of experiment: Murine macrophage cytotoxicity (luminescence-based). Conditions: Mus musculus; murine macrophage cell line J774, 24 h; read-out: IC50 against J774 cells.
Data set [4] concerns DNA damage responsive recA and radA reporters. The format is cell-based, Mycobacterium tuberculosis.
Data set [5] can be described thus: Microsomal stability, human. It counts as in vitro ADME. The settings on record: human liver microsomes, read-out: % Remaining after 2 h incubation Human. The protocol: (§1) % Remaining after 2 h incubation
(§2) Compound Chemical Structure
(§3) Table S1. Microsomal stability of some pyrazolo[1,5-a]pyrimidin-7(4H)-one derivatives
(§4) Microsomal stability was tested in microsomes from liver of female mouse (M9566 from Sigma-Aldrich)a or microsomes
(§5) from human liver (M0317 from Sigma-Aldrich)b.

The subject of data set [6] is Mtb H37Rv WT. The data set can be described thus: microbe, parasite or virus in culture. The format is cell-based. The settings on record: Mycobacterium tuberculosis.
Data set [7] is described as follows: in vitro. The settings on record: human, 24 h.
The subject of data set [8] is intramacrophage Mtb H37Rv. As to the kind of experiment: Ex vivo efficacy against intracellular Mtb in J774 macrophages. It counts as cell-based, Mycobacterium tuberculosis.
For data set [9], the system named is Mtb H37Rv. The data set can be described thus: MIC under iron-depleted (DFO) or iron-replete (FeCl3) conditions. The format is cell-based, Mycobacterium tuberculosis. The settings on record: for MIC: MIC of the iron-modulating additive itself.
For data set [10], the system named is cell wall responsive iniBAC promoter (piniB-LUX reporter strain). It counts as cell-based, Mycobacterium tuberculosis.
Data set [11] in a line: Microsomal stability, mouse. It counts as in vitro ADME. Conditions: liver microsomes of female mouse, read-out: % Remaining after 2 h incubation Mouse. On the procedure: as §1, §2, §3, §4, §5
(In general: Liver microsomes are a subcellular fraction often used to study metabolism.)

Data set [12] relates to iron uptake of Mtb H37Rv. The data set can be described thus: 55Fe iron uptake by Mtb. The format is cell-based, Mycobacterium tuberculosis. Conditions: 55Fe-labelled medium; 1 at 10 μM, DFO at 39 μM.
Setting [13] is: pH 6, read-out: MIC nitrate/butyrate.
Where [14] appears, read: Cytotoxicity (IC50) Galactose, HepG2 cells in DMEM/10% FBS with galactose.
The mark [15] stands for this setting: Cytotoxicity (IC50) Glucose, HepG2 cells in DMEM/10% FBS supplemented with glucose.

Molecules are shown by their SMILES. Converted amounts (≈) assume the structure as drawn. “And” between values parts separate entries of the source, which are not always exact repeats. Equal entries are not always repeated. Where two headings read alike, the source gives them in different places. Bounds are passed on as bounds.

As usually defined, the IC50 is the concentration at which inhibition is half-maximal. As a reminder, the fraction remaining is the share of the starting amount still present when the sample was taken. As for `Cc1nn2c(=O)cc(-c3ccc(F)c(F)c3)[nH]c2c1-c1ccccc1` [Compound P19, 5-(3,4-Difluorophenyl)-2-methyl-3-phenylpyrazolo[1,5-a]pyrimidin-7(4H)-one], in data set [1], the “improvement in MIC compared to the initial hit 1” value is on record as 5 fold. Also, the MIC was found to be 2.73 µM (≈ 0.921 µg/mL) in [1] (read-out: MIC in 7H9 ADC); 1.56 µM (≈ 0.526 µg/mL) in [1] (read-out: MIC in 7H9 GCas); 1.2 µM (≈ 0.405 µg/mL) in data set [2] (GAST/Fe, read-out: MIC GAST); 1.56 µM (≈ 0.526 µg/mL) in data set [2] (setting [13]); 3.13 µM (≈ 1.06 µg/mL) in data set [2] (read-out: MIC 7H9); 3.13 µM (≈ 1.06 µg/mL) in data set [2] (read-out: MIC Chol). For the same compound, the MIC in [2] (read-out: MIC GBSA/DBSA) stood at 3.13 µM (≈ 1.06 µg/mL); in [6], 0.78 µM (≈ 0.263 µg/mL). Also, the results for the concentration for half-maximal inhibition (IC50) in [3], in data set [7] (setting [14]) and in [7] (setting [15]) were 29.6 ± 1.2 µM, 58.9 µM and more than 100 µM, respectively. Besides, the “reporter gene assay DNA damage” value in data set [4] is given as “no”. The share remaining at 2 h stood at 77% in [5] and 66% in data set [11]. In addition, the “reduction of bacterial burden” value in data set [8] is recorded as approximately 0.5 logs. In [9], the “increase in potency under iron-depleted conditions (MIC ratio)” value (“increase in potency … (MIC ratio)” below) is recorded as not above 2 fold. For the same compound, the “reporter gene assay cell wall” value in data set [10] is recorded as “no”.
Take `Cc1nn2c(=O)cc(-c3ccccc3)[nH]c2c1-c1ccccc1` [Compound 1, 2-Methyl-3,5-diphenylpyrazolo[1,5-a]pyrimidin-7(4H)-one]: the MIC in [1] (read-out: MIC in 7H9 ADC) came to 12.5 µM (≈ 3.77 µg/mL); in data set [1] (read-out: MIC in 7H9 GCas), 3.12 µM (≈ 0.94 µg/mL); in data set [2] (GAST/Fe, read-out: MIC GAST) it was 2.3 µM (≈ 0.693 µg/mL); in data set [2] (setting [13]), 12.5 µM (≈ 3.77 µg/mL); in data set [2] (read-out: MIC 7H9), 12.5 µM (≈ 3.77 µg/mL); in [2] (read-out: MIC Chol) it was 9.4 µM (≈ 2.83 µg/mL). The MIC is 12.5 µM (≈ 3.77 µg/mL) in [2] (read-out: MIC GBSA/DBSA) and 1.2 µM (≈ 0.362 µg/mL) in [6]. Further, the “reporter gene assay DNA damage” value in data set [4] is “no”. For the same compound, the fraction remaining at 2 h was 66% in data set [5] and 61% in data set [11]. Further, the IC50 in data set [7] (setting [14]) and in data set [7] (setting [15]) was more than 100 µM each time. The “reporter gene assay cell wall” value in data set [10] was “no”. Moreover, in data set [12], the “effect on iron uptake” value is listed as “did not inhibit iron uptake”.
On to `CC(C)=CCC/C(C)=C/CNCCNC1C2CC3CC(C2)CC1C3` (centres unmarked) [SQ109], for which the “reporter gene assay cell wall” value in [10] was “yes”.
Turning to `CC(=O)N(O)CCCCCNC(=O)CCC(=O)N(O)CCCCCNC(=O)CCC(=O)N(O)CCCCCN` [DFO, desferrioxamine, reference compound], the MIC in [9] (Mycobacterium tuberculosis, H37RV) amounted to 250 µM. Further, in [12], the “effect on iron uptake” value is given as “completely inhibited uptake”.
Regarding `O=c1cc(CC2CCCCC2)[nH]c2c(-c3ccc(Cl)cc3)cnn12` [Compound 2, 3-(4-Chlorophenyl)-5-(cyclohexylmethyl)pyrazolo[1,5-a]pyrimidin-7(4H)-one, reference compound], the MIC was 9.38 µM (≈ 3.21 µg/mL) in data set [1] (read-out: MIC in 7H9 ADC); 0.78 µM (≈ 0.267 µg/mL) in [1] (read-out: MIC in 7H9 GCas); 19 µM (≈ 6.49 µg/mL) in data set [2] (GAST/Fe, read-out: MIC GAST); 6.25 µM (≈ 2.14 µg/mL) in data set [2] (setting [13]); 19 µM (≈ 6.49 µg/mL) in [2] (read-out: MIC 7H9); 12.5 µM (≈ 4.27 µg/mL) in data set [2] (read-out: MIC Chol). Also, the results for the MIC in [2] (read-out: MIC GBSA/DBSA) and in [6] were 4.7 µM (≈ 1.61 µg/mL) and 0.39 µM (≈ 0.133 µg/mL), respectively. For the same compound, in data set [4], the “reporter gene assay DNA damage” value is “no”. The “increase in potency … (MIC ratio)” value in data set [9] was “greater efficacy under iron-limited conditions”. In addition, in data set [10], the “reporter gene assay cell wall” value is “no”.
Regarding `COc1c(N2C[C@@H]3CCCN[C@@H]3C2)c(F)cc2c(=O)c(C(=O)O)cn(C3CC3)c12` [MOX, moxifloxacin], the “reporter gene assay DNA damage” value in data set [4] is “yes”.
`Cc1nn2c(=O)cc(-c3ccc(F)c(F)c3)[nH]c2c1-c1ccc(Cl)cc1` [Compound P25, 3-(4-Chlorophenyl)-5-(3,4-difluorophenyl)-2-methylpyrazolo[1,5-a]pyrimidin-7(4H)-one]: the “improvement in MIC compared to the initial hit 1” value in data set [1] worked out at 8 fold. Also, the MIC is 1.95 µM (≈ 0.725 µg/mL) in data set [1] (read-out: MIC in 7H9 ADC) and 3.12 µM (≈ 1.16 µg/mL) in data set [1] (read-out: MIC in 7H9 GCas). The IC50 in [3] came out at 20.2 ± 0.8 µM; in data set [7] (setting [14]), 52.6 µM; in data set [7] (setting [15]) it was 94.3 µM. The “reduction of bacterial counts” value in [8] is 1.5 orders of magnitude and 2 orders of magnitude.
Regarding `[Cl][Fe]([Cl])[Cl]` [FeCl3], in data set [9], the MIC is listed as 500 µM.
As to `Cc1nn2c(=O)cc(-c3ccc(Cl)c(Cl)c3)[nH]c2c1-c1ccccc1` [Compound P20, 5-(3,4-Dichlorophenyl)-2-methyl-3-phenylpyrazolo[1,5-a]pyrimidin-7(4H)-one], the “improvement in MIC compared to the initial hit 1” value in [1] turned out to be 5 fold. The values for the MIC in data set [1] (read-out: MIC in 7H9 ADC) and in data set [1] (read-out: MIC in 7H9 GCas) were 2.34 µM (≈ 0.866 µg/mL) and 1.56 µM (≈ 0.578 µg/mL), respectively. Also, the amount remaining at 2 h in [5] amounted to 55%; in [11], 41%. Moreover, the figures for the half-inhibitory concentration (IC50) in [7] (setting [14]) and in [7] (setting [15]) were 55.7 µM and more than 100 µM, respectively.
For `NNC(=O)c1ccncc1` [INH, isoniazid, reference compound], the MIC in [1] (read-out: MIC in 7H9 ADC) worked out at 0.23 µM (≈ 0.0315 µg/mL); in [1] (read-out: MIC in 7H9 GCas), 0.16 µM (≈ 0.0219 µg/mL); in data set [2] (GAST/Fe, read-out: MIC GAST), 0.1 µM (≈ 0.0137 µg/mL); in data set [2] (read-out: MIC 7H9), 0.39 µM (≈ 0.0535 µg/mL); in data set [2] (read-out: MIC Chol), 0.2 µM (≈ 0.0274 µg/mL); in data set [2] (read-out: MIC GBSA/DBSA) it was 0.3 µM (≈ 0.0411 µg/mL). In addition, in data set [6], the MIC came out at 0.04 µM (≈ 0.00549 µg/mL).
For the compound `Cc1nn2c(=O)cc(-c3ccc(Cl)c(Cl)c3)[nH]c2c1-c1ccc(F)cc1` [Compound P24, 5-(3,4-Dichlorophenyl)-3-(4-fluorophenyl)-2-methylpyrazolo[1,5-a]pyrimidin-7(4H)-one], the “improvement in MIC compared to the initial hit 1” value in data set [1] came out at 8 fold. The MIC was 2.34 µM (≈ 0.908 µg/mL) in data set [1] (read-out: MIC in 7H9 ADC), 3.12 µM (≈ 1.21 µg/mL) in data set [1] (read-out: MIC in 7H9 GCas) and 1.56 µM (≈ 0.606 µg/mL) in [6]. The results for the IC50 in data set [3], in data set [7] (setting [14]) and in [7] (setting [15]) were 22.5 ± 2.1 µM, 38.7 µM and more than 100 µM, respectively. In addition, the “increase in potency … (MIC ratio)” value in data set [9] is on record as not above 2 fold.
For the compound `COc1ccc(-c2cc(=O)n3nc(C)c(-c4ccc(F)cc4)c3[nH]2)cc1` [Compound 4, 3-(4-Fluorophenyl)-5-(4-methoxyphenyl)-2-methylpyrazolo[1,5-a]pyrimidin-7(4H)-one, reference compound], the MIC in [1] (read-out: MIC in 7H9 ADC) stood at 9.38 µM (≈ 3.28 µg/mL); in data set [1] (read-out: MIC in 7H9 GCas), 3.12 µM (≈ 1.09 µg/mL); in data set [2] (GAST/Fe, read-out: MIC GAST), 3.13 µM (≈ 1.09 µg/mL); in [2] (setting [13]), 6.25 µM (≈ 2.18 µg/mL); in data set [2] (read-out: MIC 7H9), 12.5 µM (≈ 4.37 µg/mL); in data set [2] (read-out: MIC Chol), 12.5 µM (≈ 4.37 µg/mL). Also, the MIC in data set [2] (read-out: MIC GBSA/DBSA) was found to be 9.4 µM (≈ 3.28 µg/mL); in [6], 1.56 µM (≈ 0.545 µg/mL). Moreover, the “reporter gene assay DNA damage” value in data set [4] was “no”. Also, in data set [9], the “increase in potency … (MIC ratio)” value is given as not above 2 fold. In addition, in [10], the “reporter gene assay cell wall” value is listed as “no”.
